This passage reports IC50 results from US8697739B2, “Bicyclic acetyl-CoA carboxylase inhibitors and uses thereof” (Novartis AG, priority 2010, dated 2014).

Bounds are passed on as bounds.

The target of the experiment is T1, human acetyl-CoA carboxylase 2 (ACC2) (Homo sapiens, UniProt O00763).
T1 construct: The cDNA encoding amino acids 144 to 2458 of human acetyl-CoA carboxylase 2; made in house; host or cells: Sf9 insect cells (baculovirus, pFastBac1)
T1 sequence (O00763 144-2458): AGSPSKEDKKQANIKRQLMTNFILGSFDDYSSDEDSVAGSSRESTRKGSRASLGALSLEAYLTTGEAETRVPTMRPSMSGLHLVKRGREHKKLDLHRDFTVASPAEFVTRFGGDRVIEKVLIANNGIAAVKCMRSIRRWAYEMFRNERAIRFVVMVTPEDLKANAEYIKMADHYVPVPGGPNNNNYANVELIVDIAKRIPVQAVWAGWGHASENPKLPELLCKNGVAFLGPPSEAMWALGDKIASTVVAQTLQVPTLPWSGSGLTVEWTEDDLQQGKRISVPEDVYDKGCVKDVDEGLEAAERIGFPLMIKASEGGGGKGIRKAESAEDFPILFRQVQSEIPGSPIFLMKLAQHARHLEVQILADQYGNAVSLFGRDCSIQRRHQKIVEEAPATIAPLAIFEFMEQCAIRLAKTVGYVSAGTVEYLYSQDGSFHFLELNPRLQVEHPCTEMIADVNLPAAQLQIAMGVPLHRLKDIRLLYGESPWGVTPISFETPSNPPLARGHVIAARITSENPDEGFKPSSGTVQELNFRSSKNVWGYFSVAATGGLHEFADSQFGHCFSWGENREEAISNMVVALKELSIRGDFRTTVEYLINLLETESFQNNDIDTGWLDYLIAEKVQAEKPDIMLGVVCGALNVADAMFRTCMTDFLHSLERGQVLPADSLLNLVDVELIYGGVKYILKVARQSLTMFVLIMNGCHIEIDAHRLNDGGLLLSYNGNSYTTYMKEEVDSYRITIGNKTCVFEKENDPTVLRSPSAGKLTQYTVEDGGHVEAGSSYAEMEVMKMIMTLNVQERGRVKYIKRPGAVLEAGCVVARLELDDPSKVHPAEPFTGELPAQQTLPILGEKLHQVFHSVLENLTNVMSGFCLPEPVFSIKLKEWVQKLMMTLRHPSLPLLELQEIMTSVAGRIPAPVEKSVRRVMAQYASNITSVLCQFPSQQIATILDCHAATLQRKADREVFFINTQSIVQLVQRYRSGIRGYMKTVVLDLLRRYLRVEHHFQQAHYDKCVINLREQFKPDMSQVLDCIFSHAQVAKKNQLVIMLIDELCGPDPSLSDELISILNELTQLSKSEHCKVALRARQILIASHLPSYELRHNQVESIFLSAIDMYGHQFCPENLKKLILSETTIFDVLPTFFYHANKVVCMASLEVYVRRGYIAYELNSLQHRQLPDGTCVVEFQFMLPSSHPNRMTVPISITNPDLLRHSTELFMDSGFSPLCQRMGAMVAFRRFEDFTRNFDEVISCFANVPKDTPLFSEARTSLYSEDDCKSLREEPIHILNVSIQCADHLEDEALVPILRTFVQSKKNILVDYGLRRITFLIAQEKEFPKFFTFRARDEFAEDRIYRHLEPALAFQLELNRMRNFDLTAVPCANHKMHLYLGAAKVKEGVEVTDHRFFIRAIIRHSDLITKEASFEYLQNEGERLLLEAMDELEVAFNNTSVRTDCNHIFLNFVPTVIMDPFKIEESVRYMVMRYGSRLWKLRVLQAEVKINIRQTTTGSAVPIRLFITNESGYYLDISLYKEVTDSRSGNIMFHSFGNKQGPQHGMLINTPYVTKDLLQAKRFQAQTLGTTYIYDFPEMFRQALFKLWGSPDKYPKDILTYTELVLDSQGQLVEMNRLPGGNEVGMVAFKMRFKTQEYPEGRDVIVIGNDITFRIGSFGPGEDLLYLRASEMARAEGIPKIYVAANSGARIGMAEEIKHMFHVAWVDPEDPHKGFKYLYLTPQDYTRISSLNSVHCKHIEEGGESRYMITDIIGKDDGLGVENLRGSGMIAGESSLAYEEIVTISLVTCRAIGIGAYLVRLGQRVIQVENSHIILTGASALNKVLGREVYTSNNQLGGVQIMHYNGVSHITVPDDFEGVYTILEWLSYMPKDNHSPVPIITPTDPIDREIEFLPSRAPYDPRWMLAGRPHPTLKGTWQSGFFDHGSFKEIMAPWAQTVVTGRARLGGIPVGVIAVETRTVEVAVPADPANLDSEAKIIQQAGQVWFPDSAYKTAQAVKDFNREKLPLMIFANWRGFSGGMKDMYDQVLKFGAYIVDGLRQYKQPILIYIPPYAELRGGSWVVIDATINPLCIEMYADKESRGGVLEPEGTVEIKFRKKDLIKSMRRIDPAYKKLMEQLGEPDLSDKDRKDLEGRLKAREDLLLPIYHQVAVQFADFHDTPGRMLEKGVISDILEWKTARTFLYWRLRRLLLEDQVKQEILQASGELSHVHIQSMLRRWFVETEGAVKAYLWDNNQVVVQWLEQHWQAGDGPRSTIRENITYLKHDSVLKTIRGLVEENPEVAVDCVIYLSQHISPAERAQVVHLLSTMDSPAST
Description: Acetyl-CoA carboxylase enzyme assay (malonyl-CoA formation by LC/MS/MS). The following applies: recombinant human ACC2 (aa 144-2458); read-out: IC50 ACC2. In kind it is biochemical. Summed up:
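Malonyl-CoA formation was read by LC/MS/MS MRM against a [13C3]-malonyl-CoA internal standard, after acetic acid quench. The enzyme was baculovirus/Sf9-expressed human ACC2 residues 144–2458, given 15 minutes room-temperature compound preincubation in HEPES pH 7.5 buffer with MgCl2, citrate and DTT. Substrate solution held 50 μM acetyl-CoA, 120 μM ATP and 2 mM KHCO3.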
Take `C[C@@H]1CN(C(=O)[C@H]2CC[C@H](NS(=O)(=O)c3ccc4c(C#N)c(C5CC5)n(C)c4c3)CC2)C[C@H](C)O1` [Example 417, 3-cyano-2-cyclopropyl-N-((1R,4r)-4-((2S,6R)-2,6-dimethylmorpholine-4-carbonyl)cyclohexyl)-1-methyl-1H-indole-6-sulfonamide]: the 50% inhibitory concentration (IC50) (as a rule, the concentration that inhibits the measured activity by half) was 80 nM.
The result for `COC[C@H]1CCCN1C(=O)[C@H]1CC[C@H](NS(=O)(=O)c2ccc3c(C#N)c(C4CC4)n(C)c3c2)CC1` [Example 418, 3-cyano-2-cyclopropyl-N-((1R,4r)-4-((R)-2-(methoxymethyl)pyrrolidine-1-carbonyl)cyclohexyl)-1-methyl-1H-indole-6-sulfonamide] reads 65 nM; that for `C[C@@H]1CN(C(=O)[C@H]2CC[C@H](NS(=O)(=O)c3ccc4cc(-c5ccccc5)n(C)c4c3)CC2)C[C@H](C)O1` [Example 419, N-((1R,4r)-4-((2S,6R)-2,6-dimethylmorpholine-4-carbonyl)cyclohexyl)-1-methyl-2-phenyl-1H-indole-6-sulfonamide], 35 nM; that for `CCOC(=O)[C@H]1CCCN1C(=O)[C@H]1CC[C@H](NS(=O)(=O)c2ccc3cc(-c4ccccc4)n(C)c3c2)CC1` [Example 420, (R)-ethyl 1-((1r,4R)-4-(1-methyl-2-phenyl-1H-indole-6-sulfonamido)cyclohexanecarbonyl)pyrrolidine-2-carboxylate], 720 nM.
The result for `C[C@H]1COCCN1C(=O)[C@H]1CC[C@H](NS(=O)(=O)c2ccc3c(C#N)c(C4CC4)n(C)c3c2)CC1` [Example 421, 3-cyano-2-cyclopropyl-1-methyl-N-((1S,4r)-4-((S)-3-methylmorpholine-4-carbonyl)cyclohexyl)-1H-indole-6-sulfonamide] reads 50 nM; that for `C[C@H]1COCCN1C(=O)[C@H]1CC[C@H](NS(=O)(=O)c2ccc3cc(C4CC4)n(C)c3c2)CC1` [Example 422, 2-cyclopropyl-1-methyl-N-((1S,4r)-4-((S)-3-methylmorpholine-4-carbonyl)cyclohexyl)-1H-indole-6-sulfonamide], 285 nM.
With `COC[C@@H](NC(=O)[C@H]1CC[C@H](NS(=O)(=O)c2ccc3cc(-c4ccccc4)n(C)c3c2)CC1)c1ccccc1` [Example 423, (1r,4S)-N-((S)-2-methoxy-1-phenylethyl)-4-(1-methyl-2-phenyl-1H-indole-6-sulfonamido)cyclohexanecarboxamide], the IC50 stood at 40 nM.
With `CCC1(CC)CN(C(=O)[C@H]2CC[C@H](NS(=O)(=O)c3ccc4cc(-c5ccccc5)n(C)c4c3)CC2)CCO1` [Example 424, N-((1r,4r)-4-(2,2-diethylmorpholine-4-carbonyl)cyclohexyl)-1-methyl-2-phenyl-1H-indole-6-sulfonamide], the IC50 turned out to be 50 nM.
For `C[C@H]1COCCN1C(=O)[C@H]1CC[C@H](NS(=O)(=O)c2ccc3cc(-c4ccccc4)n(C)c3c2)CC1` [Example 425, 1-methyl-N-((1S,4r)-4-((S)-3-methylmorpholine-4-carbonyl)cyclohexyl)-2-phenyl-1H-indole-6-sulfonamide], the 50% inhibitory concentration (IC50) came out at 30 nM.
Turning to `C[C@H]1COCCN1C(=O)[C@H]1CC[C@H](NS(=O)(=O)c2ccc3c(Cl)c(C4CC4)n(C)c3c2)CC1` [Example 426, 3-chloro-2-cyclopropyl-1-methyl-N-((1S,4r)-4-((S)-3-methylmorpholine-4-carbonyl)cyclohexyl)-1H-indole-6-sulfonamide], the IC50 was determined as 55 nM.
`C[C@H]1COCCN1C(=O)[C@H]1CC[C@H](NS(=O)(=O)c2ccc3cc(-c4ccc(CCC(=O)O)cc4)n(C)c3c2)CC1` [Example 427, 3-(4-(1-methyl-6-(N-((1S,4r)-4-((S)-3-methylmorpholine-4-carbonyl)cyclohexyl)sulfamoyl)-1H-indol-2-yl)phenyl)propanoic acid]: the IC50 was 15 nM.
With `C[C@H]1COCCN1C(=O)[C@H]1CC[C@H](NS(=O)(=O)c2ccc3c(Cl)c(-c4ccc(CCC(=O)O)cc4)n(C)c3c2)CC1` [Example 428, 3-(4-(3-chloro-1-methyl-6-(N-((1S,4r)-4-((S)-3-methylmorpholine-4-carbonyl)cyclohexyl)sulfamoyl)-1H-indol-2-yl)phenyl)propanoic acid], the IC50 is less than 10 nM.
As for `Cn1c(-c2ccc(CCC(=O)O)cc2)c(C#N)c2ccc(S(=O)(=O)N[C@H]3CC[C@H](C(=O)N4CCC[C@H]4C(C)(C)C)CC3)cc21` [Example 429, 3-(4-(6-(N-((1S,4r)-4-((S)-2-tert-butylpyrrolidine-1-carbonyl)cyclohexyl)sulfamoyl)-3-cyano-1-methyl-1H-indol-2-yl)phenyl)propanoic acid], the IC50 is 75 nM.
Consider `Cn1c(-c2ccc(CCC(=O)O)cc2)c(C#N)c2ccc(S(=O)(=O)N[C@H]3CC[C@H](C(=O)N4CCC[C@@H]4C(C)(C)C)CC3)cc21` [Example 430, 3-(4-(6-(N-((1R,4r)-4-((R)-2-tert-butylpyrrolidine-1-carbonyl)cyclohexyl)sulfamoyl)-3-cyano-1-methyl-1H-indol-2-yl)phenyl)propanoic acid], for which the IC50 is less than 10 nM.
The result for `Cn1c(-c2ccccc2)cc2ccc(S(=O)(=O)N[C@H]3CC[C@H](C(=O)N4CCC[C@@H]4CO)CC3)cc21` [Example 432, N-((1R,4r)-4-((R)-2-(hydroxymethyl)pyrrolidine-1-carbonyl)cyclohexyl)-1-methyl-2-phenyl-1H-indole-6-sulfonamide] reads 95 nM; that for `Cn1c(-c2ccccc2)cc2ccc(S(=O)(=O)N[C@H]3CC[C@H](C(=O)N4CCC(O)C4)CC3)cc21` (stereo partly drawn) [Example 433, N-((1r,4r)-4-(3-hydroxypyrrolidine-1-carbonyl)cyclohexyl)-1-methyl-2-phenyl-1H-indole-6-sulfonamide], 445 nM.
The result for `CC(C)[C@H]1COCCN1C(=O)[C@H]1CC[C@H](NS(=O)(=O)c2ccc3cc(-c4ccccc4)n(C)c3c2)CC1` [Example 434, N-((1S,4r)-4-((S)-3-isopropylmorpholine-4-carbonyl)cyclohexyl)-1-methyl-2-phenyl-1H-indole-6-sulfonamide] reads 10 nM; that for `Cn1c(-c2ccccc2)cc2ccc(S(=O)(=O)NC3CCC(C(=O)NC4CCCCNC4=O)CC3)cc21` (stereo not drawn) [Example 435, (1r,4r)-4-(1-methyl-2-phenyl-1H-indole-6-sulfonamido)-N-(2-oxoazepan-3-yl)cyclohexanecarboxamide], 20 nM.
As to `COCc1ccc(-c2cc3ccc(S(=O)(=O)N[C@H]4CC[C@H](C(=O)N5CCOC[C@@H]5C)CC4)cc3[nH]2)cc1` [Example 436, 2-(4-(methoxymethyl)phenyl)-N-((1S,4r)-4-((S)-3-methylmorpholine-4-carbonyl)cyclohexyl)-1H-indole-6-sulfonamide], the 50% inhibitory concentration (IC50) came to 20 nM.
As for `COCc1ccc(-c2cc3ccc(S(=O)(=O)N[C@H]4CC[C@H](C(=O)N5CCOC[C@@H]5C)CC4)cc3n2C)cc1` [Example 437, 2-(4-(methoxymethyl)phenyl)-1-methyl-N-((1S,4r)-4-((S)-3-methylmorpholine-4-carbonyl)cyclohexyl)-1H-indole-6-sulfonamide], the figure is 40 nM.
The result for `COCc1ccc(-c2cc3ccc(S(=O)(=O)N[C@H]4CC[C@H](C(=O)N5CCOC[C@@H]5C(C)C)CC4)cc3n2C)cc1` [Example 438, N-((1S,4r)-4-((S)-3-isopropylmorpholine-4-carbonyl)cyclohexyl)-2-(4-(methoxymethyl)phenyl)-1-methyl-1H-indole-6-sulfonamide] reads less than 10 nM.
Turning to `Cn1c(-c2ccccc2)cc2ccc(S(=O)(=O)N[C@H]3CC[C@H](C(=O)N[C@@H](c4ccccc4)C(C)(C)CO)CC3)cc21` [Example 439, (1r,4S)-N-((S)-3-hydroxy-2,2-dimethyl-1-phenylpropyl)-4-(1-methyl-2-phenyl-1H-indole-6-sulfonamido)cyclohexanecarboxamide], the IC50 was less than 10 nM.
Turning to `COc1ccc(-c2cc3ccc(S(=O)(=O)N[C@H]4CC[C@H](C(=O)N5CCOC[C@@H]5C)CC4)cc3n2C)cc1` [Example 440, 2-(4-methoxyphenyl)-1-methyl-N-((1S,4r)-4-((S)-3-methylmorpholine-4-carbonyl)cyclohexyl)-1H-indole-6-sulfonamide], the half-inhibitory concentration (IC50) worked out at 20 nM.
As to `COc1ccc(-c2cc3ccc(S(=O)(=O)N[C@H]4CC[C@H](C(=O)N5CCOC[C@@H]5C(C)C)CC4)cc3n2C)cc1` [Example 441, N-((1S,4r)-4-((S)-3-isopropylmorpholine-4-carbonyl)cyclohexyl)-2-(4-methoxyphenyl)-1-methyl-1H-indole-6-sulfonamide], the IC50 was less than 10 nM.
Take `Cn1c(-c2ccccc2)cc2ccc(S(=O)(=O)N[C@H]3CC[C@H](C(=O)N4CCOC(C)(C)C4)CC3)cc21` [Example 442, N-((1r,4r)-4-(2,2-dimethylmorpholine-4-carbonyl)cyclohexyl)-1-methyl-2-phenyl-1H-indole-6-sulfonamide]: the concentration for half-maximal inhibition (IC50) was found to be 40 nM.
The result for `Cn1c(-c2ccccc2)cc2ccc(S(=O)(=O)N[C@H]3CC[C@H](C(=O)N4CCC[C@@H]4C(C)(C)O)CC3)cc21` [Example 443, N-((1R,4r)-4-((R)-2-(2-hydroxypropan-2-yl)pyrrolidine-1-carbonyl)cyclohexyl)-1-methyl-2-phenyl-1H-indole-6-sulfonamide] reads 30 nM; that for `COCCc1ccc(-c2cc3ccc(S(=O)(=O)N[C@H]4CC[C@H](C(=O)N5CCOC[C@@H]5C)CC4)cc3n2C)cc1` [Example 444, 2-(4-(2-methoxyethyl)phenyl)-1-methyl-N-((1S,4r)-4-((S)-3-methylmorpholine-4-carbonyl)cyclohexyl)-1H-indole-6-sulfonamide], 20 nM.
